{
  "source": "patent US4012284A",
  "about": "(Societa' Farmaceutici Italia, S.p.A., priority 1962, dated 1977)",
  "key": {"[1]": {"tested_on": "Ascitic myeloma (Oberling-Guerin-Guerin myeloma)", "test": "Ascitic myeloma (Oberling-Guerin-Guerin) in Wistar rats (Table V)", "format": "in vivo, rat", "conditions": "for Average survival time: controls 10.7", "procedure": "(§1) At least 20 animals per lot were used.\nActivity tests were carried out on mice, bearing Ehrlich ascitic carcinoma and on rats, which are grafted with hepatoma AH 130 and Oberling-Guerin-Guerin myeloma.\nThis experiment was carried out on Wister rats, which have been grafted with a suspension of tumor cells and then have been treated intraperitoneously with a solution of the antibiotic according to the following scheme: one group three times on alternate days with a dose equal to 2 mg/kg/day; another group for 5 consecutive days with a dose of 1 mg/kg/day."}, "[2]": {"tested_on": "tumors, ascitic and solid", "test": "Antitumor activity on standard experimental animals (summary statements)", "format": "in vivo, mouse and rat", "text": "as §1"}},
  "data": [
    {"smiles": "COc1cccc2c1C(=O)c1c(O)c3c(c(O)c1C2=O)C[C@@](O)(C(C)=O)C[C@@H]3O[C@H]1C[C@H](N)[C@H](O)[C@H](C)O1", "note": "[F.I. 1762]", "values": [
      {"measurement": "Average survival time", "setting": "[1]; 1 mg/kg/day intraperitoneally, 5 consecutive days", "result": 16.7, "unit": "days"},
      {"measurement": "Average survival time", "setting": "[1]; 2 mg/kg/day intraperitoneally, three times on alternate days", "result": 17.7, "unit": "days"},
      {"measurement": "diffusion of the tumor", "setting": "[1]; 2 mg/kg/day x 3 or 1 mg/kg/day x 5, intraperitoneally", "result": "a delay in the diffusion of the tumor has been observed"},
      {"measurement": "effect in solid tumors", "setting": "[2]; activity differs according to administration route and dose", "result": "Good inhibiting effect"},
      {"measurement": "effect on the tumor growth in ascitic form", "setting": "[2]; immediate contact of the antibiotic and the neoplastic cells", "result": "marked inhibitory effect on the tumor growth in ascitic form"},
      {"measurement": "results by route and dose", "setting": "[2]; intravenous, doses between 2 and 3 mg/kg/body weight day", "result": "best results"},
      {"measurement": "usefulness as antitumoral", "setting": "[2]; standard experimental animals", "result": "particularly useful as antitumoral"}
    ]}
  ]
}
